Experimental data from US5714494A, “Xanthines in the 7th position with a benzyl acetic acid moiety” (Bayer Aktiengesellschaft, priority 1995, dated 1998).

test system: ApoB-100-associated lipoproteins; assay: Inhibition of the release of ApoB-100-associated lipoproteins from HepG2 cells (immunoassay for human LDL); type: cell-based; conditions: HepG2 cells; light absorption 450 nm vs solvent control
Experimental: The test for detecting inhibition of the release of ApoB-100-associated lipoproteins from liver cells was carried out in vitro using cultured liver cells, preferably using cells of the human line HepG2. These cells are grown under standard conditions in medium for the culture of eucaryotic cells, preferably in RPMI 1640 using 10% foetal calf serum. HepG2 cells synthesize and secrete into the culture supernatant ApoB-100-associated lipoprotein particles which in principle are synthesized in a similar manner to the VLDL and LDL particles which are to be found in the plasma.
These particles can be detected using an immunoassay for human LDL. This immunoassay is carried out using antibodies which have been induced in the rabbit against human LDL under standard conditions. The anti-LDL antibodies (rabbit anti-LDL-Ab) were purified by affinity chromatography on an immunosorbent using human LDL. These purified rabbit anti-LDL Ab are adsorbed on the surface of plastic. Expediently, this adsorption is carried out on the plastic surface of microtitre plates having 96 wells, preferably on MaxiSorp plates. If ApoB-100-associated particles are present in the supernatant of Hep-G2 cells, these can bind to the insolubilized rabbit anti-LDL Ab, and an immune complex is formed which is bound to the plastic surface. Unbound proteins are removed by washing. The immune complex located on the plastic surface is detected using monoclonal antibodies which have been induced against human LDL according to standard conditions and purified. These antibodies were conjugated with the enzyme peroxidase. Peroxidase converts the colourless substrate TMB into a coloured product in the presence of H2 O2. After acidification of the reaction mixture using H2 SO4, the specific light absorption at 450 mn is determined, which is a measure of the amount of ApoB-100-associated particles which have been secreted into the culture supernatant by the HepG2 cells.
The IC50 value indicates at which substance concentration the light absorption is inhibited by 50% in comparison with the control (solvent control without substance).

Row | IC50 [nM] | Compound
1 | 240 | Cn1c(=O)c2c(ncn2Cc2ccc(C(C(=O)N[C@@H](CO)c3ccccc3)C3CCCC3)cc2)n(C)c1=O (single isomer, unassigned) [Example 115]
2 | 2 | Cn1c(=O)c2c(nc(-c3cccs3)n2Cc2ccc(C(C(=O)N[C@@H](CO)c3ccccc3)C3CCCC3)cc2)n(C)c1=O (single isomer, unassigned) [Example 158]
3 | 7 | Cn1c(=O)c2c(nc(Br)n2Cc2ccc(C(C(=O)N[C@@H](CO)c3ccccc3)C3CCCC3)cc2)n(C)c1=O (single isomer, unassigned) [Example 118]
4 | 25 | Cn1c(=O)c2c(nc(-c3ccsc3)n2Cc2ccc(C(C(=O)N[C@@H](CO)c3ccccc3)C3CCCC3)cc2)n(C)c1=O (single isomer, unassigned) [Example 156]
5 | 2 | Cn1c(=O)c2c(nc(-c3ccsc3)n2Cc2ccc(C(C(=O)N[C@@H](CO)c3ccccc3)C3CCCC3)cc2)n(C)c1=O (single isomer, unassigned) [Example 155]

More lines, now with the values behind:

Row | Compound | IC50 [nM]
6 | Cc1cccc(Cc2nc3c(c(=O)n(C)c(=O)n3C)n2Cc2ccc(C(C(=O)N[C@@H](CO)c3ccccc3)C3CCCC3)cc2)c1 (single isomer, unassigned) [Example 181] | 10
7 | Cn1c(=O)c2c(nc(Cc3ccccc3Cl)n2Cc2ccc(C(C(=O)N[C@@H](CO)c3ccccc3)C3CCCC3)cc2)n(C)c1=O (single isomer, unassigned) [Example 190] | 86
8 | COc1ccc(Cc2nc3c(c(=O)n(C)c(=O)n3C)n2Cc2ccc(C(C(=O)N[C@@H](CO)c3ccccc3)C3CCCC3)cc2)cc1 (single isomer, unassigned) [Example 203] | 63
9 | Cn1c(=O)c2c(nc(-c3ccccc3)n2Cc2ccc(C(C(=O)N[C@@H](CO)c3ccccc3)C3CCCC3)cc2)n(C)c1=O (single isomer, unassigned) [Example 131] | 135
10 | Cc1ccc(-c2nc3c(c(=O)n(C)c(=O)n3C)n2Cc2ccc(C(C(=O)N[C@@H](CO)c3ccccc3)C3CCCC3)cc2)cc1 (single isomer, unassigned) [Example 137] | 124
11 | Cc1ccc(Cc2nc3c(c(=O)n(C)c(=O)n3C)n2Cc2ccc(C(C(=O)N[C@@H](CO)c3ccccc3)C3CCCC3)cc2)cc1 (single isomer, unassigned) [Example 184] | 24
12 | Cn1c(=O)c2c(nc(Cc3cccc(Cl)c3)n2Cc2ccc(C(C(=O)N[C@@H](CO)c3ccccc3)C3CCCC3)cc2)n(C)c1=O (single isomer, unassigned) [Example 193] | 62
13 | COc1ccc(Cc2nc3c(c(=O)n(C)c(=O)n3C)n2Cc2ccc(C(C(=O)N[C@@H](CO)c3ccccc3)C3CCCC3)cc2)cc1 (single isomer, unassigned) [Example 202] | 9
14 | Cn1c(=O)c2c(nc(Cc3ccccc3)n2Cc2ccc(C(C(=O)N[C@@H](CO)c3ccccc3)C3CCCC3)cc2)n(C)c1=O (single isomer, unassigned) [Example 170] | 16
15 | Cn1c(=O)c2c(nc(Cc3cccc(Cl)c3)n2Cc2ccc(C(C(=O)N[C@@H](CO)c3ccccc3)C3CCCC3)cc2)n(C)c1=O (single isomer, unassigned) [Example 192] | 8
16 | Cn1c(=O)c2c(nc(Cc3ccccc3Cl)n2Cc2ccc(C(C(=O)N[C@@H](CO)c3ccccc3)C3CCCC3)cc2)n(C)c1=O (single isomer, unassigned) [Example 189] | 31
17 | COc1cccc(Cc2nc3c(c(=O)n(C)c(=O)n3C)n2Cc2ccc(C(C(=O)N[C@@H](CO)c3ccccc3)C3CCCC3)cc2)c1 (single isomer, unassigned) [Example 200] | 24
18 | COc1cccc(Cc2nc3c(c(=O)n(C)c(=O)n3C)n2Cc2ccc(C(C(=O)N[C@@H](CO)c3ccccc3)C3CCCC3)cc2)c1 (single isomer, unassigned) [Example 199] | 5
19 | Cc1ccc(Cc2nc3c(c(=O)n(C)c(=O)n3C)n2Cc2ccc(C(C(=O)N[C@@H](CO)c3ccccc3)C3CCCC3)cc2)cc1 (single isomer, unassigned) [Example 183] | 10
20 | Cn1c(=O)c2c(nc(Cc3ccc(F)cc3)n2Cc2ccc(C(C(=O)N[C@@H](CO)c3ccccc3)C3CCCC3)cc2)n(C)c1=O (single isomer, unassigned) [Example 195] | 5

same assay, conditions: Homo sapiens, HepG2, HepG2 cells; light absorption 450 nm vs solvent control

Row | IC50 [nM] | Compound
21 | 12 | Cn1c(=O)c2c(nc(-c3cc(Br)cs3)n2Cc2ccc(C(C(=O)N[C@@H](CO)c3ccccc3)C3CCCC3)cc2)n(C)c1=O (stereo partly drawn) [Example 164]
22 | 58 | Cn1c(=O)c2c(ncn2Cc2ccc(C(C(=O)N[C@@H](CO)c3ccccc3)C3CCCC3)cc2)n(C)c1=O (stereo partly drawn) [Example 113]
23 | 4 | CCc1nc2c(c(=O)n(C)c(=S)n2C)n1Cc1ccc(C(C(=O)N[C@@H](CO)c2ccccc2)C2CCCC2)cc1 (stereo partly drawn) [Example 224]
24 | 11 | CCn1c(=O)c2c(nc(-c3ccccc3)n2Cc2ccc(C(C(=O)N[C@@H](CO)c3ccccc3)C3CCCC3)cc2)n(CC)c1=O (stereo partly drawn) [Example 217]
25 | 8 | CCn1c(=O)c2c(ncn2Cc2ccc(C(C(=O)N[C@@H](CO)c3ccccc3)C3CCCC3)cc2)n(CC)c1=O (single isomer, unassigned) [Example 212]
26 | 36 | Cn1c(=O)c2c(nc(C3CC3)n2Cc2ccc(C(C(=O)N[C@@H](CO)c3ccccc3)C3CCCC3)cc2)n(C)c1=O (stereo partly drawn) [Example 121]
27 | 131 | Cc1ccc(-c2nc3c(c(=O)n(C)c(=O)n3C)n2Cc2ccc(C(C(=O)N[C@@H](CO)c3ccccc3)C3CCCC3)cc2)s1 (stereo partly drawn) [Example 163]
28 | 28 | CCc1nc2c(c(=O)n(C)c(=O)n2C)n1Cc1ccc(C(C(=O)N[C@@H](CO)c2ccccc2)C2CCCC2)cc1 (stereo partly drawn) [Example 120]
29 | 9 | CCn1c(=O)c2c(ncn2Cc2ccc(C(C(=O)N[C@@H](CO)c3ccccc3)C3CCCC3)cc2)n(CC)c1=O (stereo partly drawn) [Example 211]
30 | 34 | CCn1c(=O)c2c(nc(C3CC3)n2Cc2ccc(C(C(=O)N[C@@H](CO)c3ccccc3)C3CCCC3)cc2)n(CC)c1=O (stereo partly drawn) [Example 216]
31 | 4 | Cc1nc2c(c(=O)n(C)c(=S)n2C)n1Cc1ccc(C(C(=O)N[C@@H](CO)c2ccccc2)C2CCCC2)cc1 (stereo partly drawn) [Example 223]
32 | 169 | Cn1c(=O)c2c(nc(-c3cccnc3)n2Cc2ccc(C(C(=O)N[C@@H](CO)c3ccccc3)C3CCCC3)cc2)n(C)c1=O (stereo partly drawn) [Example 152]
33 | 48 | Cn1c(=O)c2c(nc(C3CCCC3)n2Cc2ccc(C(C(=O)N[C@@H](CO)c3ccccc3)C3CCCC3)cc2)n(C)c1=O (stereo partly drawn) [Example 122]
34 | 11 | Cc1nc2c(c(=O)n(C)c(=O)n2C)n1Cc1ccc(C(C(=O)N[C@@H](CO)c2ccccc2)C2CCCC2)cc1 (stereo partly drawn) [Example 119]
35 | 8 | CCn1c(=O)c2c(nc(-c3ccc(C)cc3)n2Cc2ccc(C(C(=O)N[C@@H](CO)c3ccccc3)C3CCCC3)cc2)n(CC)c1=O (stereo partly drawn) [Example 218]
36 | 5 | CCn1c(=O)c2c(nc(-c3cccs3)n2Cc2ccc(C(C(=O)N[C@@H](CO)c3ccccc3)C3CCCC3)cc2)n(CC)c1=O (stereo partly drawn) [Example 219]

Continued, molecule first:

Row | Compound | IC50 [nM]
37 | Cn1c(=O)c2c(nc(Cc3ccccc3)n2Cc2ccc(C(C(=O)N[C@@H](CO)c3ccccc3)C3CCCCC3)cc2)n(C)c1=O (stereo partly drawn) [Example 171] | 2
38 | COc1cccc(Cc2nc3c(c(=O)n(C)c(=O)n3C)n2Cc2ccc(C(C(=O)N[C@@H](CO)c3ccccc3)C3CCCC3)cc2)c1 (stereo partly drawn) [Example 198] | 5
39 | Cn1c(=O)c2c(nc(Cc3ccccc3O)n2Cc2ccc(C(C(=O)N[C@@H](CO)c3ccccc3)C3CCCC3)cc2)n(C)c1=O (stereo partly drawn) [Example 204] | 16
40 | Cn1c(=O)c2c(nc(Cc3ccc(-c4ccccc4)cc3)n2Cc2ccc(C(C(=O)N[C@@H](CO)c3ccccc3)C3CCCC3)cc2)n(C)c1=O (stereo partly drawn) [Example 185] | 29
41 | Cn1c(=O)c2c(nc(Cc3ccc(F)cc3)n2Cc2ccc(C(C(=O)N[C@@H](CO)c3ccccc3)C3CCCC3)cc2)n(C)c1=O (stereo partly drawn) [Example 194] | 8
42 | Cc1ccccc1-c1nc2c(c(=O)n(C)c(=O)n2C)n1Cc1ccc(C(C(=O)N[C@@H](CO)c2ccccc2)C2CCCC2)cc1 (stereo partly drawn) [Example 132] | 743
43 | Cn1c(=O)c2c(nc(-c3cccs3)n2Cc2ccc(C(C(=O)N[C@@H](CO)c3ccccc3)C3CCCC3)cc2)n(C)c1=S (stereo partly drawn) [Example 225] | 4
44 | Cn1c(=O)c2c(nc(Cc3ccccc3Cl)n2Cc2ccc(C(C(=O)N[C@@H](CO)c3ccccc3)C3CCCC3)cc2)n(C)c1=O (stereo partly drawn) [Example 188] | 23
45 | Cc1ccc(-c2nc3c(c(=O)n(C)c(=S)n3C)n2Cc2ccc(C(C(=O)N[C@@H](CO)c3ccccc3)C3CCCC3)cc2)cc1 (stereo partly drawn) [Example 226] | 11
46 | Cn1c(=O)c2c(nc(Cc3ccccc3)n2Cc2ccc(C(C(=O)N[C@@H](CO)c3ccccc3)C3CCCC3)cc2)n(C)c1=O (stereo partly drawn) [Example 168] | 16
47 | Cn1c(=O)c2c(nc(Cc3cccc(O)c3)n2Cc2ccc(C(C(=O)N[C@@H](CO)c3ccccc3)C3CCCC3)cc2)n(C)c1=O (stereo partly drawn) [Example 207] | 40
48 | Cc1cccc(Cc2nc3c(c(=O)n(C)c(=O)n3C)n2Cc2ccc(C(C(=O)N[C@@H](CO)c3ccccc3)C3CCCC3)cc2)c1 (single isomer, unassigned) [Example 180] | 5
